Experimental data as given in publication PMC9230797, “Integration of a Physiologically Based Pharmacokinetic and Pharmacodynamic Model for Tegoprazan and Its Metabolite: Application for Predicting Food Effect and Intragastric pH Alterations” (Pharmaceutics, 2022).
Several values for one entry are separate records, joined by “and”; a condition that tells them apart may be missing. Equal values may be shown once. Read-outs that look alike come from different tables or passages of the source.

Tests used:
Type in all cases: in vitro ADME
[1] = Caco-2 permeability assay; conditions: human
Description: (§1) Caco-2 cells were cultured in DMEM supplemented with 20% FBS, 1% non-essential amino acids, and 1% penicillin-streptomycin. Caco-2 cells were seeded onto collagen-coated 12-Transwell membranes at a density of 5 × 10^5 cells/mL and incubated under optimal conditions (maintained at 37 °C in a humidified atmosphere with 5% CO2/95% air) for 21 days. The culture medium was replaced every second day. For the experiments, after the growth medium was removed, the attached cells were washed with pre-warmed HBSS (pH 7.4) and pre-incubated with HBSS for 20 min at 37 °C. The integrity of the cell monolayers was evaluated before and after the permeability experiments by measuring transepithelial electrical resistance (TEER) values using an epithelial volt/ohm meter (World Precision Instruments, Sarasota, FL, USA). Caco-2 cells with TEER values higher than 300 Ω∙cm^2 were used for permeability experiments, and alterations in TEER values were less than 10% in all cases (i.e., 417.3 ± 6.3 Ω∙cm^2 and 400.8 ± 3.5 Ω∙cm^2, before and after the permeability experiments, respectively).
(§2) To determine the apical to basal (A to B) permeability of tegoprazan, 0.5 mL of HBSS containing 10 µM tegoprazan and 1.5 mL of fresh HBSS were added to the apical and basal side of the insert, respectively. The insert was transferred to a new well that contained 1.5 mL of fresh HBSS every 15 min, for 1 h. Aliquots (0.3 mL) on the basal side were transferred to fresh tubes and stored at −80 °C until further analysis. To investigate B-to-A permeability, 1.5 mL of HBSS containing 10 µM tegoprazan and 0.5 mL of fresh HBSS were added to the basal and apical sides of the insert, respectively. Aliquots (0.3 mL) on the apical side were transferred to fresh tubes, and 0.3 mL of pre-warmed fresh HBSS was replaced every 15 min for 1 h. The transport study was performed for 1 h based on the linearity of the cumulative transported tegoprazan amount versus transport time. The cumulative transported amount was calculated as the sum of transported amounts for 0–15 min, 15–30 min, 30–45 min, and 45–60 min, and the transport rate of tegoprazan was the slope of the regression line derived from the cumulative transported amount versus time plot. The apparent permeability (Papp) was calculated from the following Equation (2):(2) Papp(10^−6cm/s)=transport rate (nmol/min)/concentration (μM)× area(cm^2)×60 s
(§3) Caco-2 and rCYP samples were quantified using LC-MS/MS (UPLC® I-class coupled with TQ-MS (Waters, Milford, MA, USA). The mobile phase comprised (a) 0.1% formic acid and (b) acetonitrile containing 0.1% formic acid. Gradient elution at a flow rate of 0.3 mL/min was applied. Tegoprazan, M1, and the internal standard (tegoprazan-d6) were optimized in electrospray ionization positive mode. Acetonitrile with 0.1 μM of tegoprazan-d6 was added to the collected Caco-2 or rCYP samples. Then, processed samples were centrifuged at 13,000× g for 20 min. After centrifugation, 100 μL of supernatant was transferred to an LC-MS vial and analyzed using LC-MS/MS. The analytical method was validated based on the Bioanalytical Method Validation Guidance for Industry published by the US Food and Drug Administration and the Guideline on Bioanalytical Method Validation published by the Korean Ministry of Food and Drug Safety (MFDS). Linearity was in the range of 0.1–20 µM, and the inter-batch accuracy and precision were in the ranges of 91.8–101.3% and 2.3–8.9%, respectively. The stability of tegoprazan was evaluated, and it satisfied the acceptance criteria (coefficient of variances was within 15%) under variable conditions including reinjection, processed sample stability (PSS), and short-term stability for the stock and sample.

Caco-2 cells = experiment: Caco-2 permeability assay; conditions: pH 7.4/7.4, 10 µM; for Papp / Transport Rate: single replicates; for Recovery: single replicates A-C
Description: as §1, §2, §3

CYP3A4 = target: T1, CYP3A4 (Homo sapiens, UniProt P08684); experiment: Intrinsic clearance using recombinant CYPs: CYP3A4
T1 construct: purchased Corning Life Sciences (Woburn, MA, USA)
T1 sequence (P08684 whole entry): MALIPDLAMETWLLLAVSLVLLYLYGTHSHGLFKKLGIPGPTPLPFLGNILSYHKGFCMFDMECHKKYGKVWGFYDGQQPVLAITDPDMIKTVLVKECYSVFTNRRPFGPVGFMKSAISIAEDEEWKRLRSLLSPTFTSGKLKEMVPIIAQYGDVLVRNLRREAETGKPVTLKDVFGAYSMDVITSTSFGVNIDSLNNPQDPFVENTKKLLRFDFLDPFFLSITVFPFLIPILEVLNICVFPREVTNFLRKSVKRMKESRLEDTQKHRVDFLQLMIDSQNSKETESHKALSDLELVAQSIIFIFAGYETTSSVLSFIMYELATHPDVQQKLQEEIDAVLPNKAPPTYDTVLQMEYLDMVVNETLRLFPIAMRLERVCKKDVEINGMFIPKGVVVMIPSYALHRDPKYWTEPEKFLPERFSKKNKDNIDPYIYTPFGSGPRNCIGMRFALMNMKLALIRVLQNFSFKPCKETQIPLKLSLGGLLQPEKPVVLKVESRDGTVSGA
Description: (§4) The elimination profiles of tegoprazan and M1 were assessed using rCYPs. All the assay procedures were performed according to the manufacturer’s instructions. Master mix (1.399 mL), containing the NADPH-generating system, 3.3 mM of glucose 6-phosphate, PBS buffer, deionized water, and each rCYP (25 pmol/μL of CYP2C8, 2C19, and 2E1 and 50 pmol/μL of CYP3A4, 2C9, and 2D6), was added to a microtube and pre-incubated at 37 °C for 5 min. Next, 1 μM tegoprazan and M1 were added and incubated at 37 °C for 0, 5, 10, 20, 30, 45, and 60 min. A total of 100 μL of the sample, incubated for predefined duration, was transferred to a fresh e-tube. Next, 200 μL of acetonitrile containing tegoprazan-d6 (0.5 μM) was added, vortexed for 5 min, and centrifuged at 16,200× g and 4 °C for 10 min. The concentrations of the remaining tegoprazan and M1 were determined by LC–MS/MS. All experiments were performed in duplicate. CLint,rCYP levels were assessed using the results of the disappearance test. […] The CLint resulting from rCYPs was calculated using Equation (3):(3) CLint,rCYP(μL/min/pmol CYP)=0.693/t1/2×1400/concentration of CYP
as §3, with “The analytical method was validated based on the Bioanalytical Method Validation Guidance for Industry published by the US Food and Drug Administration and the Guideline on Bioanalytical Method Validation published by the Korean Ministry of Food and Drug Safety (MFDS). Linearity was in the range of 0.1–20 µM, and the inter-batch accuracy and precision were in the ranges of 91.8–101.3% and 2.3–8.9%, respectively.” left out

CYP2C19 = target: T2, CYP2C19 (Homo sapiens, UniProt P33261); experiment: Intrinsic clearance using recombinant CYPs: CYP2C19
T2 construct: purchased Corning Life Sciences (Woburn, MA, USA)
T2 sequence (P33261 whole entry): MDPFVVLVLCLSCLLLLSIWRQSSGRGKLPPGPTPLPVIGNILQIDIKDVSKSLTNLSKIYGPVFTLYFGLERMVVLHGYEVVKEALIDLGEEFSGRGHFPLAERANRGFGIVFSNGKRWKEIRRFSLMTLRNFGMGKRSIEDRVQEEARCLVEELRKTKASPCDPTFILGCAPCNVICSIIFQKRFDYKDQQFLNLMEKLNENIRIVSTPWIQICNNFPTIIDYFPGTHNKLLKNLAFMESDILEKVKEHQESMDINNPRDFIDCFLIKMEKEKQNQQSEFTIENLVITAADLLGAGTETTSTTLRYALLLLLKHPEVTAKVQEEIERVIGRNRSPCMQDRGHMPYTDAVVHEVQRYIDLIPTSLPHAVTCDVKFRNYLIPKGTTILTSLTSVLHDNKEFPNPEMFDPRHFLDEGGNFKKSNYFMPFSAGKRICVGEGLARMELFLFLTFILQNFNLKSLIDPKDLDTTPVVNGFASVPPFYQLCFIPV
Description: as §4
as §3, with “The analytical method was validated based on the Bioanalytical Method Validation Guidance for Industry published by the US Food and Drug Administration and the Guideline on Bioanalytical Method Validation published by the Korean Ministry of Food and Drug Safety (MFDS). Linearity was in the range of 0.1–20 µM, and the inter-batch accuracy and precision were in the ranges of 91.8–101.3% and 2.3–8.9%, respectively.” left out

recombinant CYP2D6 = target: T3, recombinant CYP2D6 (Homo sapiens, UniProt P10635); experiment: Intrinsic clearance using recombinant CYPs: CYP2D6; conditions: 1 μM
T3 construct: purchased Corning Life Sciences (Woburn, MA, USA)
T3 sequence (P10635 whole entry): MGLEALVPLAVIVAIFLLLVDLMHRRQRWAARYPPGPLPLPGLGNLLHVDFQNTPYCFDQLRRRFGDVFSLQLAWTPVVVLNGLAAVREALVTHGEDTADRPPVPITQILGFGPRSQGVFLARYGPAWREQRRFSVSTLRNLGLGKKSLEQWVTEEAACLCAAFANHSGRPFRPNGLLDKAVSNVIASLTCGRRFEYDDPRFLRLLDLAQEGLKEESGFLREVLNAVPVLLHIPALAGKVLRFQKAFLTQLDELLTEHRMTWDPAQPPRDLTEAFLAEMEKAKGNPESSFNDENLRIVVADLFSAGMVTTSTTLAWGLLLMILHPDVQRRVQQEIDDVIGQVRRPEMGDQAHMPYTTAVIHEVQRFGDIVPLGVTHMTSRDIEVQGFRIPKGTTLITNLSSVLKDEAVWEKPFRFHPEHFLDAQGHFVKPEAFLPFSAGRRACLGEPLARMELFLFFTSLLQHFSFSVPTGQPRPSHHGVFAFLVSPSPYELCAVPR
Description: The elimination profiles of tegoprazan and M1 were assessed using rCYPs. All the assay procedures were performed according to the manufacturer’s instructions. Master mix (1.399 mL), containing the NADPH-generating system, 3.3 mM of glucose 6-phosphate, PBS buffer, deionized water, and each rCYP (25 pmol/μL of CYP2C8, 2C19, and 2E1 and 50 pmol/μL of CYP3A4, 2C9, and 2D6), was added to a microtube and pre-incubated at 37 °C for 5 min. Next, 1 μM tegoprazan and M1 were added and incubated at 37 °C for 0, 5, 10, 20, 30, 45, and 60 min. A total of 100 μL of the sample, incubated for predefined duration, was transferred to a fresh e-tube. Next, 200 μL of acetonitrile containing tegoprazan-d6 (0.5 μM) was added, vortexed for 5 min, and centrifuged at 16,200× g and 4 °C for 10 min. The concentrations of the remaining tegoprazan and M1 were determined by LC–MS/MS. All experiments were performed in duplicate. CLint,rCYP levels were assessed using the results of the disappearance test. The terminal slope of the linear regression was used to determine the CLint for tegoprazan. The CLint resulting from rCYPs was calculated using Equation (3):(3) CLint,rCYP(μL/min/pmol CYP)=0.693/t1/2×1400/concentration of CYP […]

CYP2E1 = target: T4, CYP2E1 (Homo sapiens, UniProt P05181); experiment: Intrinsic clearance using recombinant CYPs: CYP2E1
T4 construct: purchased Corning Life Sciences (Woburn, MA, USA)
T4 sequence (P05181 whole entry): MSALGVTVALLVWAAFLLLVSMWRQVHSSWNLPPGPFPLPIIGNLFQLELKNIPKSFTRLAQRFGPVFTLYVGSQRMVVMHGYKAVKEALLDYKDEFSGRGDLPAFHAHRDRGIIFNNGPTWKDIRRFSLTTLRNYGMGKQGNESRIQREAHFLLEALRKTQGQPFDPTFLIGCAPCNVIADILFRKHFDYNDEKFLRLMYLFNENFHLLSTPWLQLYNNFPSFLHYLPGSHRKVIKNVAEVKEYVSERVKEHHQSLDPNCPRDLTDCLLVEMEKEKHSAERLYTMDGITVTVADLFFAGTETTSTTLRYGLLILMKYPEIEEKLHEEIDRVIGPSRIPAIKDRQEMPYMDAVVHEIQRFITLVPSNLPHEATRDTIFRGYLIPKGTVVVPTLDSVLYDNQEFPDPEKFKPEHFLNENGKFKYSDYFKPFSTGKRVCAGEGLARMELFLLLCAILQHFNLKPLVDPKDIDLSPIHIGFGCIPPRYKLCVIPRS
Description: as §4
as §3, with “The analytical method was validated based on the Bioanalytical Method Validation Guidance for Industry published by the US Food and Drug Administration and the Guideline on Bioanalytical Method Validation published by the Korean Ministry of Food and Drug Safety (MFDS). Linearity was in the range of 0.1–20 µM, and the inter-batch accuracy and precision were in the ranges of 91.8–101.3% and 2.3–8.9%, respectively.” left out

[2] = 1 μM, experimental (initial model value)

Cc1nc2cc(C(=O)N(C)C)cc(O[C@H]3CCOc4cc(F)cc(F)c43)c2[nH]1 [tegoprazan]
Papp at 1 h, 10 µM ([1]; Caco-2, pH 7.4, A to B, pH 7.4/7.4, 10 µM, read-out: Papp, Mean): 12.5 ×10⁻⁶ cm/s
recovery at 1 h, 10 µM ([1]; Caco-2, pH 7.4, A to B, pH 7.4/7.4, 10 µM, read-out: Recovery, Mean): 84.5%
recovery at 1 h, 10 µM ([1]; Caco-2, pH 7.4, A to B, pH 7.4/7.4, 10 µM, single replicates A-C, read-out: Recovery): 82.7%
Papp at 1 h, 10 µM ([1]; Caco-2, pH 7.4, A to B, pH 7.4/7.4, 10 µM, single replicates, read-out: Papp): 13.4 ×10⁻⁶ cm/s
Papp at 1 h, 10 µM ([1]; Caco-2, pH 7.4, B to A, pH 7.4/7.4, 10 µM, read-out: Papp, Mean): 11.7 ×10⁻⁶ cm/s
recovery at 1 h, 10 µM ([1]; Caco-2, pH 7.4, B to A, pH 7.4/7.4, 10 µM, read-out: Recovery, Mean): 84.3%
recovery at 1 h, 10 µM ([1]; Caco-2, pH 7.4, B to A, pH 7.4/7.4, 10 µM, single replicates A-C, read-out: Recovery): 85.9%
Papp at 1 h, 10 µM ([1]; Caco-2, pH 7.4, B to A, pH 7.4/7.4, 10 µM, single replicates, read-out: Papp): 11.4 ×10⁻⁶ cm/s
Papp at 1 h, 10 µM ([1]; Caco-2, pH 7.4, initial model value (experimental), read-out: Papp,caco-2): 12.5 ×10⁻⁶ cm/s
Papp (Caco-2 cells; A to B): 11.01 ×10⁻⁶ cm/s and 13.23 ×10⁻⁶ cm/s
Transport Rate (Caco-2 cells; A to B): 0.56 nmol/h and 0.48 nmol/h
Recovery (Caco-2 cells; A to B): 86.4%
Papp (Caco-2 cells; B to A): 10.36 ×10⁻⁶ cm/s and 13.36 ×10⁻⁶ cm/s
Transport Rate (Caco-2 cells; B to A): 0.49 nmol/h and 0.46 nmol/h and 0.53 nmol/h
Recovery (Caco-2 cells; B to A): 88.7% and 78.3%
CLint, CYP3A4 (CYP3A4; [2]): 0.86 µL/min/pmol and 0.855 µL/min/pmol
half-life at 1 μM (CYP3A4; human, recombinant CYP3A4, rCYP3A4): 0.378 h
Slope (disappearance) (CYP3A4; rCYP3A4, 1 μM): -0.031
CLint, CYP2C19 (CYP2C19; [2]): 0.61 µL/min/pmol and 0.614 µL/min/pmol
half-life at 1 μM (CYP2C19; human, recombinant CYP2C19, rCYP2C19): 1.05 h
Slope (disappearance) (CYP2C19; rCYP2C19, 1 μM): -0.011
CLint, CYP2D6 (recombinant CYP2D6; experimental data): 0.02 µL/min/pmol and 0.020 µL/min/pmol
Slope (disappearance) (recombinant CYP2D6; rCYP2D6): < 0.001
CLint, CYP2E1 (CYP2E1; 1 μM, experimental data): 0.03 µL/min/pmol and 0.030 µL/min/pmol
half-life at 1 μM (CYP2E1; human, recombinant CYP2E1, rCYP2E1): 11.6 h
Slope (disappearance) (CYP2E1; rCYP2E1, 1 μM): -0.001
